Measurements: patent publication US7059206B1 (priority 1999, dated 2006)
Like-named read-outs stand apart in the source and are kept apart here.

Tests used:
[1] = Cadmium uptake by passive sampler, effect of pH and of permselective membrane
From the text: Further evidence for the permselective function of the membrane during diffusion is illustrated by studying the effect of pH on metal uptake by the passive sampler, in this case Cd. […] Cadmium was initially added to a carefully-controlled water system in the laboratory into which the sampler was placed. Samples of water were taken over a period of 10 days.
Further evidence of the interaction of metal with the permselective membrane is that uptake to a naked disk is much more rapid. The uptake rate constant (k) for Cd is 1.6×10^9 min^−1 for the naked disk and 0.21×10^9 min^−1 for the permselective membrane.

[2] = cited from earlier work
[3] = Uptake by prototype passive sampler at constant exposure concentration over time; details: polyethylene device
Method: In each experiment, the prototype device was tested fitted with both the polyethylene and the polysulphone membrane.
Accumulation of organic analytes by a passive sampling system fitted with a C18 Empore™ disk as receiving phase and either a […] pore size polysulphone membrane or a polyethylene membrane as a diffusion-limiting membrane material. Accumulation was measured following exposure of the system to an aqueous solution of analytes at constant concentration, stirring speed (140 rpm) and temperature (11° C.). Linear regressions of the accumulation factor, AF, (ml/device) on time were plotted and are given with the […] (R^2) in table 7. AF=mass of analytes in the tested compartment (ng/device)/mean concentration of the analyte in the aqueous phase during deployment (ng/ml).
The pattern of uptake in each case is linear with time over deployment periods ranging from several hours to 9 days. R^2 values in each case are above 0.9. Linear regressions plotted through the data points show the lag time between exposure of the device to an aqueous solution of each analyte and its uptake into the receiving phase of the passive sampling system. In effect this is a measurement of the response time of a particular prototype passive sampling system to a particular compound.

Compound: [Cd] [Cadmium]
- uptake rate constant (k) ([1]; naked disk): 1.6e+09 min⁻¹
- uptake rate constant (k) ([1]; permselective membrane (Nafion-coated cellulose acetate)): 2.1e+08 min⁻¹

Compound: ClC1=C(Cl)[C@]2(Cl)[C@@H]3[C@@H]4C[C@@H]([C@H]5O[C@@H]45)[C@@H]3[C@@]1(Cl)C2(Cl)Cl [Dieldrin]
- Solubility in water ([2]; at 25° C.): 0.186 mgl^−1
- lag phase between exposure and uptake into the C18 receiving phase [3]: a more significant lag phase

Compound: CN(C)C(=O)Nc1ccc(Cl)c(Cl)c1 [Diuron]
- Solubility in water ([2]; at 25° C.): 42 mgl^−1

Compound: Clc1ccc(Cl)c(-c2cc(Cl)ccc2Cl)c1 [PCB 52]
- Solubility in water ([2]; temperature not given): 0.03 mgl^−1
- lag phase between exposure and uptake into the C18 receiving phase [3]: only a small lag phase

Compound: Clc1cc(Cl)c(-c2cc(Cl)c(Cl)cc2Cl)cc1Cl [PCB 153]
- Solubility in water ([2]; temperature not given): 0.00105 mgl^−1
- lag phase between exposure and uptake into the C18 receiving phase [3]: a more significant lag phase

Compound: c1ccc2c(c1)ccc1ccccc12 [Phenanthrene]
- lag phase between exposure and uptake into the C18 receiving phase [3]: only a small lag phase
